Laboratory results published in the Kinase Knowledgebase extract (Sharma et al. 2016).

Molecular target: CDK2 (UniProt P24941)
Assay: Enzyme Assay

Compound	IC50 [µM]
COc1ccccc1-c1cc(Nc2ccc(NC(=O)c3ccc(N)cc3)cc2)nc(N)n1	10 to 250
COC(=O)CN(c1ccc(Nc2cc(-c3ccccc3OC)ncn2)cc1)S(=O)(=O)c1ccc(C)cc1	1 to 10
COc1ccccc1-c1cc(Nc2ccc(NC(=O)C3CC4CCC3C4)cc2)ncn1 (stereo not given)	10 to 250
Cc1ccc(Nc2cc(-c3ccccc3)ncn2)cc1NS(C)(=O)=O	0.001 to 1
COc1ccccc1-c1cc(Nc2ccc(NC(=O)c3ccc(N)cc3)cc2)ncn1	1 to 10
Cc1ccc(Nc2cc(-c3ccccc3O)ncn2)cc1NS(C)(=O)=O	0.001 to 1
COc1cccc(-c2cc(Nc3ccc(NC(=O)[C@@H]4CCCCN4)cc3)ncn2)c1OC	10 to 250
CN1CCC(Nc2cc(Nc3ccc(NC(=O)C(C)(C)C)cc3)ncn2)CC1	10 to 250
COc1ccccc1-c1cc(Nc2ccc(NC(=O)C34CC5CC(CC(C5)C3)C4)cc2)ncn1	10 to 250
CCOc1ccccc1-c1cc(Nc2ccc(NC(=O)c3ccc(N)cc3)cc2)ncn1	1 to 10
COc1ccccc1-c1cc(Nc2ccc(NC(=O)c3ccc4c(c3)OCO4)cc2)ncn1	1 to 10
Cc1ccc(Nc2cc(-c3cccc(C=O)c3)ncn2)cc1NS(C)(=O)=O	1 to 10
COc1cccc(-c2cc(Nc3ccc(C)c(NS(C)(=O)=O)c3)ncn2)c1	1 to 10
COc1ccccc1-c1cc(Nc2ccc(C)c(NS(C)(=O)=O)c2)ncn1	0.001 to 1
Cc1ccc(Nc2cc(-c3cncnc3)ncn2)cc1NS(C)(=O)=O	1 to 10
COc1ccccc1-c1cc(Nc2ccc(NC(=O)c3c[nH]c4ccccc34)cc2)ncn1	1 to 10
Nc1cccc(-c2cc(Nc3cccc(S(N)(=O)=O)c3)ncn2)c1	1 to 10
COc1ccccc1-c1cc(Nc2ccc(NC(=O)CC3CCCCN3C(=O)OC(C)(C)C)cc2)ncn1 (stereo not given)	1 to 10
CC(C)(C)C(=O)Nc1ccc(Nc2cc(Cl)ncn2)cc1	10 to 250
COc1ccccc1-c1cc(Nc2ccc(NC(=O)C(C)(C)C)cc2)ncn1	1 to 10

Compound	IC50 [µM]
CS(=O)(=O)Nc1cccc(-c2cc(Nc3ccc(C(=O)N[C@@H]4CCCC[C@H]4N)cc3)ncn2)c1.CS(=O)(=O)Nc1cccc(-c2cc(Nc3ccc(C(=O)N[C@H]4CCCC[C@@H]4N)cc3)ncn2)c1	1 to 10
COc1ccccc1-c1cc(Nc2ccc(-c3nc4ccccc4o3)cc2)ncn1	10 to 250
COc1ccccc1-c1cc(Nc2ccc(NS(=O)(=O)c3ccccc3)cc2)ncn1	0.001 to 1
O=C(Nc1ccc(Nc2cc(-c3ccccc3OCc3ccccc3)ncn2)cc1)[C@@H]1CCCCN1	0.001 to 1
COc1ccc(-c2cc(Nc3ccc(NC(=O)c4ccc(N)cc4)cc3)ncn2)cc1	1 to 10
CN1CCN(c2cc(Nc3ccc(NC(=O)C(C)(C)C)cc3)ncn2)CC1	10 to 250
O=C(Nc1ccc(Nc2cc(-c3ccc(Oc4ccccc4)cc3)ncn2)cc1)[C@@H]1CCCCN1	1 to 10
Cc1ccc(Nc2cc(-c3cccc(N(C)C)c3)ncn2)cc1NS(C)(=O)=O	1 to 10
COc1ccccc1-c1cc(Nc2cccc(N)c2)ncn1	0.001 to 1
COc1cccc(OC)c1-c1cc(Nc2ccc(NC(=O)c3ccc(N)cc3)cc2)ncn1	10 to 250
COc1ccccc1-c1cc(Nc2ccc(NC(=O)[C@@H](N)C(C)C)cc2)ncn1	1 to 10
COc1ccccc1-c1cc(Nc2ccc(NS(=O)(=O)C(C)C)cc2)ncn1	0.001 to 1
COc1ccccc1-c1cc(Nc2ccc(NC(=O)c3ccc4ccccc4n3)cc2)ncn1	10 to 250
Oc1ccccc1-c1cc(NCCc2ccncc2)ncn1	10 to 250
COc1ccccc1-c1ncnc(Nc2ccc(N)cc2)c1C	10 to 250
COc1ccccc1-c1cc(Nc2ccc(NC(=O)c3ccncc3)cc2)ncn1	10 to 250
CSc1ccccc1-c1cc(Nc2ccc(NC(=O)[C@@H]3CCCCN3)cc2)ncn1	1 to 10
Cc1ccc(Nc2cc(-c3cccc(C#N)c3)ncn2)cc1NS(C)(=O)=O	1 to 10
COc1ccccc1-c1cc(Nc2ccc(NC(=O)C(c3ccccc3)N(C)C)cc2)ncn1 (stereo not given)	1 to 10
Nc1ccc(C(=O)Nc2ccc(Nc3cc(-c4ccc(O)cc4)ncn3)cc2)cc1	1 to 10

Compound	IC50 [µM]
CS(=O)(=O)Nc1cc(Nc2cc(-c3cccc(N)c3)ncn2)ccc1OCc1ccccc1	1 to 10
CC(C)(C)C(=O)Nc1ccc(Nc2cc(NCCN)ncn2)cc1	10 to 250
CC(C)Oc1ccccc1-c1cc(Nc2ccc(C(=O)N[C@@H]3CCCC[C@H]3N)cc2)ncn1.CC(C)Oc1ccccc1-c1cc(Nc2ccc(C(=O)N[C@H]3CCCC[C@@H]3N)cc2)ncn1	1 to 10
COc1ncccc1-c1cc(Nc2ccc(NC(=O)[C@@H]3CCCCN3)cc2)ncn1	1 to 10
O=C(Nc1ccc(Nc2cc(-c3ccccc3Cl)ncn2)cc1)[C@@H]1CCCCN1	10 to 250
COc1ccccc1-c1cc(Nc2ccc(NC(=O)[C@@H]3CCN3)cc2)ncn1	1 to 10
COc1ccccc1-c1cc(Nc2ccc(NC(=N)N)cc2)ncn1	1 to 10
CS(=O)(=O)Nc1cccc(Nc2cc(-c3cccc(N)c3)ncn2)c1	1 to 10
COc1ccc(-c2cc(Nc3ccc(C(=O)N[C@@H]4CCCC[C@H]4N)cc3)ncn2)cc1.COc1ccc(-c2cc(Nc3ccc(C(=O)N[C@H]4CCCC[C@@H]4N)cc3)ncn2)cc1	1 to 10
CC(=O)Nc1cccc(-c2cc(Nc3ccc(C)c(NS(C)(=O)=O)c3)ncn2)c1	1 to 10
COC(=O)CN(c1ccc(Nc2cc(-c3ccc(O)cc3)ncn2)cc1)S(=O)(=O)c1ccc(C)cc1	0.001 to 1
Cc1ccc(Nc2cc(-c3cccc(NS(C)(=O)=O)c3)ncn2)cc1CS(N)(=O)=O	0.001 to 1
COc1ccccc1-c1cc(Nc2ccc(NC(=O)CC(C)(C)C)cc2)ncn1	1 to 10
Cc1ccc(Nc2cc(-c3cccc(N)c3)ncn2)cc1NS(=O)(=O)c1cccc2cccnc12	10 to 250
Nc1cccc(-c2cc(Nc3ccc(S(N)(=O)=O)cc3)ncn2)c1	0.001 to 1
Cc1ccc(Nc2cc(-c3ccccc3OC(C)C)ncn2)cc1NS(C)(=O)=O	0.001 to 1
COc1ccccc1-c1cc(N(C)c2ccc(N)cc2)ncn1	1 to 10
CC(C)Oc1ccccc1-c1cc(NCCc2ccncc2)ncn1	1 to 10
COc1ccc(-c2cc(Nc3cccc(S(N)(=O)=O)c3)ncn2)cc1	0.001 to 1

Second part, the compound after the results:

IC50 [µM]	Compound
1 to 10	CC(C)Oc1ccccc1-c1cc(Nc2ccc(NC(=O)[C@@H]3CCCCN3)cc2)ncn1
1 to 10	COc1ccccc1-c1cc(Nc2ccc(C(=O)NC3CCCCC3)cc2)ncn1
0.001 to 1	COc1ccc(-c2cc(Nc3ccc(NC(=O)c4ccc(N)cc4)cc3)ncn2)c(OC)c1
10 to 250	COc1ccccc1-c1cc(Nc2ccc(NC(=O)NCc3ccc(C)cc3)cc2)ncn1
0.001 to 1	COc1ccccc1-c1cc(Nc2cccc(C(N)=O)c2)ncn1
10 to 250	COc1cccc(-c2cc(Nc3ccc(NS(=O)(=O)c4ccc(C)cc4)cc3)ncn2)c1
1 to 10	COc1ncccc1-c1cc(Nc2ccc(C)c(NS(C)(=O)=O)c2)ncn1
10 to 250	Nc1ccc(C(=O)Nc2ccc(Nc3cc(-c4ccccc4)ncn3)cc2)cc1
0.001 to 1	Cc1ccc(Nc2cc(-c3ccccc3OCc3ccccc3)ncn2)cc1NS(C)(=O)=O
1 to 10	COc1ccc(-c2cc(Nc3ccc(NS(=O)(=O)c4ccc(C)cc4)cc3)ncn2)cc1
0.001 to 1	COc1ccccc1-c1cc(Nc2ccc(C(N)=O)cc2)ncn1
10 to 250	COc1ccc(-c2cc(NCCc3ccncc3)ncn2)cc1
10 to 250	Nc1ccc(C(=O)Nc2ccc(Nc3cc(/C=C/c4ccccc4)ncn3)cc2)cc1
10 to 250	COc1ccccc1-c1cc(Nc2ccc(C(=O)Nc3ccc(C(C)(C)C)cc3)cc2)ncn1
1 to 10	COc1ccccc1-c1cc(Nc2ccc(NC(=O)C3CCN(C)CC3)cc2)ncn1
10 to 250	CC(C)(C)C(=O)Nc1ccc(Nc2cc(-c3ccccc3C(F)(F)F)ncn2)cc1
1 to 10	COC(=O)/C=C/c1cccc(-c2cc(Nc3ccc(C)c(NS(C)(=O)=O)c3)ncn2)c1
1 to 10	COc1ccccc1-c1cc(Nc2ccc(C(=O)N[C@@H]3CCCC[C@H]3O)cc2)ncn1.COc1ccccc1-c1cc(Nc2ccc(C(=O)N[C@H]3CCCC[C@@H]3O)cc2)ncn1
10 to 250	COc1ccccc1-c1cc(Nc2ccc(NC(=O)C3(NC(=O)OC(C)(C)C)CCCC3)cc2)ncn1
1 to 10	COc1ccccc1-c1cc(N(C)c2ccc(NS(=O)(=O)c3ccc(C)cc3)cc2)ncn1
0.001 to 1	CCCS(=O)(=O)Nc1ccc(Nc2cc(-c3ccccc3OC)ncn2)cc1

IC50 [µM]	Compound
10 to 250	C=Cc1ccccc1-c1cc(Nc2ccc(NC(=O)C(C)(C)C)cc2)ncn1
1 to 10	COc1ccccc1-c1cc(Nc2ccc(NC(=O)[C@@H]3CCCCN3C(=O)OC(C)(C)C)cc2)ncn1
1 to 10	CCc1ccccc1-c1cc(Nc2ccc(NC(=O)C(C)(C)C)cc2)ncn1
1 to 10	COc1ccccc1-c1cc(Nc2ccc(N)cc2C)ncn1
0.001 to 1	COc1ccc(-c2cc(Nc3ccc(C)c(NS(C)(=O)=O)c3)ncn2)cc1
1 to 10	COc1ccccc1-c1cc(Nc2ccc(NS(=O)(=O)c3ccc(-c4ccccc4)cc3)cc2)ncn1
10 to 250	COc1ccccc1-c1cc(Nc2ccc(NC(=O)C(c3ccccc3)C(C)C)cc2)ncn1 (stereo not given)
10 to 250	COc1ccccc1-c1cc(Nc2ccc(NC(=O)Nc3ccc4c(c3)OCO4)cc2)ncn1
10 to 250	Nc1ccc(C(=O)Nc2ccc(Nc3cc(-c4cccs4)ncn3)cc2)cc1
10 to 250	Nc1ccc(C(=O)Nc2ccc(Nc3cc(-c4ccncc4)ncn3)cc2)cc1
0.001 to 1	COc1ccccc1-c1cc(Nc2cccc(S(N)(=O)=O)c2)ncn1
10 to 250	COc1ccc(OC)c(-c2cc(Nc3ccc(NC(=O)c4ccc(N)cc4)cc3)ncn2)c1
10 to 250	COc1ccccc1-c1cc(Nc2ccc(NC(=O)c3nc4ccccc4s3)cc2)ncn1
10 to 250	COc1ccccc1-c1cc(Nc2ccc(NC(=O)C(C)(C)C)cc2C)ncn1
1 to 10	COc1ccccc1-c1cc(Nc2ccc(C(=O)Nc3ccc(O)cc3)cc2)ncn1
1 to 10	CC[C@H](C)[C@H](N)C(=O)Nc1ccc(Nc2cc(-c3ccccc3OC)ncn2)cc1
0.001 to 1	COc1ccccc1-c1cc(Nc2ccc(NS(=O)(=O)c3ccc(C)cc3)cc2)ncn1
0.001 to 1	COC(=O)c1ccc(Nc2cc(-c3ccccc3OC)ncn2)cc1
1 to 10	COc1ccccc1-c1cc(Nc2ccc(NS(=O)(=O)c3ccc(C(C)C)cc3)cc2)ncn1
10 to 250	COc1ccccc1-c1cc(Nc2ccc(C(=O)Nc3ccc(C(C)C)cc3)cc2)ncn1
